In patent US6780994B2, “Phthalimido arylpiperazines useful in the treatment of benign prostatic hyperplasia” (Ortho-McNeil Pharmaceutical, Inc., priority 1998, dated 2004):

Columns and labels:
[1] = target: T1, α1d-AR (Homo sapiens, UniProt P25100); assay: radioligand ([125I]-HEAT) receptor binding assay, COS cell membranes expressing cloned receptor; settings: [125I]-HEAT 50 pM, 1 hour room temperature
T1 construct: expressed in transfected cells; host or cells: COS cells, pcDNA3 vector, transient DEAE-dextran transfection
T1 sequence (P25100 1-572): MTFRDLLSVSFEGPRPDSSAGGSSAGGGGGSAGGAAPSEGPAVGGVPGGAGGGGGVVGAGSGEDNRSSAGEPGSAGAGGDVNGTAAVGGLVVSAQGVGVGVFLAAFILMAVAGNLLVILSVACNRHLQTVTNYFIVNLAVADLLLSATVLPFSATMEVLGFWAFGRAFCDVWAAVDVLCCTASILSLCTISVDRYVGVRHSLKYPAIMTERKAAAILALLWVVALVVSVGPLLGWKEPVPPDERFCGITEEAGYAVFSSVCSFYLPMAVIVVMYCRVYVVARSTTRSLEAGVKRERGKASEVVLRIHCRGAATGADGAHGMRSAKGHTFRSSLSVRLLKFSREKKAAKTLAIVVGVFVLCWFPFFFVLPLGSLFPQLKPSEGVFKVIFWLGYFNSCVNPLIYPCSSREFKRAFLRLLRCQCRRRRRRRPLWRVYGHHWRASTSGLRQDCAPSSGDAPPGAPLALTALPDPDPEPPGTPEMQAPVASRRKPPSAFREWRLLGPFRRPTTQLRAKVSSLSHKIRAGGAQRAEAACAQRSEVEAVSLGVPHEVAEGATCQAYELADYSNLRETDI
Text: (§1) The first assay tested the ability of compounds of Formula I to bind to membrane bound receptors α1a-AR, α1b-AR and α1d-AR.
(§2) The DNA sequences of the three cloned human α1-AR subtypes have been published. […] We used published DNA sequence information to design primers for use in RT-PCR amplification of each subtype to obtain cloned cDNAs. Human poly A+ RNA was obtained from commercially available sources and included hippocampus and prostate samples, sources which have been cited in the literature. For the primary screen a radioligand binding assay was used which employed membrane preparations from cells expressing the individual cloned receptor cDNAs. Radiolabeled ligands with binding activity on all three subtypes (non-selective) are commercially available ([125I]-HEAT, [3H]-prazosin). Each α1 receptor subtype was cloned from poly A+ RNA by the standard method of reverse transcription-polymerase chain reaction (RT-PCR). The following sources of polyA+ RNA were used for the cloning of the α1 receptor subtypes: α1a-AR, human hippocampus and prostate, α1b-AR, human hippocampus, α1d-AR, human hippocampus. The resulting cDNAs were cloned into the pcDNA3 mammalian expression vector (Invitrogen Corp., San Diego Calif.). Each DNA was sequenced for verification and to detect any possible mutations introduced during the amplification process. Any deviation in sequence from the published consensus for each receptor subtype was corrected by site-directed mutagenesis.
(§3) The three α1-AR subtypes (a, b, d) were transfected into COS cells using a standard DEAE-dextran procedure with a chloroquine shock. In this procedure, each tissue culture dish (100 mm) was inoculated with 3.5×10^6 cells and transfected with 10 μg of DNA. Approximately 72 hours post-transfection, the cells were harvested and COS membranes were prepared. Transfected COS cells from 25 plates (100 mm) were scraped and suspended in 15 mL of TE buffer (50 mM Tris-HCl, 5 mM EDTA, pH 7.4). The suspension was disrupted with a homogenizer. It was then centrifuged at 1000× g for 10 minutes at 4° C. The supernatant was centrifuged at 34,500× g for 20 minutes at 4° C. The pellet was resuspended in 5 mL TNE buffer (50 mM Tris-HCl, 5 mM EDTA, 150 mM NaCl, pH 7.4). The resulting membrane preparation was aliquoted and stored at −70° C. The protein concentration was determined following membrane solubilization with TritonX-100.
(§4) The ability of each compound to bind to each of the α1-AR subtypes was assessed in a receptor binding assay. [125I]-HEAT, a non-selective α1-AR ligand, was used as the radiolabeled ligand. Each well of a 96-well plate received: 140 μL TNE, […] [125I]-HEAT diluted in TNE (50,000 cpm; final concentration 50 pM), 10 μL test compound diluted in DMSO (final concentration 1 pM-10 μM), […] COS cell membrane preparation expressing one of the three α1-AR subtypes (0.05-0.2 mg membrane protein). The plate was incubated for 1 hour at room temperature and the reaction mixtures were filtered through a Packard GF/C Unifilter filter plate. The filter plate was dried for 1 hour in a vacuum oven. Scintillation fluid ([…]) was added to each well, and the filter plate was counted in a Packard Topcount scintillation counter. Data was analyzed using GraphPad Prism software.
(§5) Tables A through D list the IC50 values expressed in nanomolar concentration for select compounds of the invention in all receptor subtypes.

[2] = target: T2, α1b-AR (Homo sapiens, UniProt P35368); assay: as above; settings: [125I]-HEAT 50 pM, 1 hour room temperature
T2 construct: expressed in transfected cells; host or cells: COS cells, pcDNA3 vector, transient DEAE-dextran transfection
T2 sequence (P35368 1-520): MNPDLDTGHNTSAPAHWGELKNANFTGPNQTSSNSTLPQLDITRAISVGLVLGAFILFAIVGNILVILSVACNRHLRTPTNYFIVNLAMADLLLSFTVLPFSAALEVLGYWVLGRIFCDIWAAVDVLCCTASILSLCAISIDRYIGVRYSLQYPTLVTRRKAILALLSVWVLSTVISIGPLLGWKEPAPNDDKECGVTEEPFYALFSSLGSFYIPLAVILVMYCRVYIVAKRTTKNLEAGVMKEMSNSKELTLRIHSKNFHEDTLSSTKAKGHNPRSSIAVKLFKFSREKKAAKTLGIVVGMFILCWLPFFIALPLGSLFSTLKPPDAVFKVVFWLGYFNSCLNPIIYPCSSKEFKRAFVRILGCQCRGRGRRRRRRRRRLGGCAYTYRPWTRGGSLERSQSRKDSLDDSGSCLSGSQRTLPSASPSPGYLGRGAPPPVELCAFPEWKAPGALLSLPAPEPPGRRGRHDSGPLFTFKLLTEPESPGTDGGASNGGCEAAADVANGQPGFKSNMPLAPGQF
Text: as §1, §2, §3, §4, §5

IC50 [1]: 51 nM
IC50 [2]: > 2000 nM
SMILES: COc1ccc(N2C(=O)c3ccc(C(=O)NCC(O)CN4CCN(c5ccccc5OC(C)C)CC4)cc3C2=O)cc1 (centres unmarked) [Compound 55]
